Assay results as given in the NIST ThermoML archive (doi:10.1016/j.jct.2007.06.009).
Numbers after ± are expanded uncertainties.

Experiments:
[1] = 303.15 K; 101 kPa; Liquid
[2] = refractive index (Na D-line) (dimensionless); settings: 303.15 K; 101.33 kPa; Liquid; Standard Abbe refractometry
[3] = xn = mol fraction of the nth substance listed; settings: 303.15 K, 101 kPa, Liquid
[4] = refractive index (Na D-line) (dimensionless); xn = mol fraction of the nth substance listed; settings: 303.15 K, 101 kPa, Liquid, Standard Abbe refractometry
[5] = excess molar enthalpy (molar enthalpy of mixing); xn = mol fraction of the nth substance listed; settings: 303 K, 101 kPa, Liquid

CCCCO [butan-1-ol]
Settings | mass density [kg/m3] | refractive index | viscosity [mPa·s]
[1] | 802.2 ± 0.3 | – | 2.195 ± 0.05
[2] | – | 1.39479 ± 0.00031 | –

CCCCO [butan-1-ol] + CCC(C)=O
x1 = 1
Settings | excess molar enthalpy [kcal/mol] | mass density [kg/m3] | refractive index | viscosity [mPa·s]
[3] | – | 802.2 ± 0.3 | – | 2.195 ± 0.05
[4] | – | – | 1.39479 ± 0.00031 | –
[5] | 0 ± 0.00191 | – | – | –

CCC(C)=O [butanone]
Settings | mass density [kg/m3] | refractive index | viscosity [mPa·s]
[1] | 794.5 ± 0.3 | – | 0.347 ± 0.014
[2] | – | 1.37383 ± 0.00031 | –

CCC(C)=O [butanone] + CCCCO
Settings | excess molar enthalpy [kcal/mol] | mass density [kg/m3] | refractive index | viscosity [mPa·s]
[3], x2 = 0 | – | 794.5 ± 0.3 | – | 0.347 ± 0.014
[3], x2 = 0.0704 | – | – | – | 0.364 ± 0.014
[3], x2 = 0.0765 | – | 795 ± 0.3 | – | –
[3], x2 = 0.1392 | – | 795.4 ± 0.3 | – | –
[3], x2 = 0.1468 | – | – | – | 0.388 ± 0.015
[3], x2 = 0.2097 | – | 795.9 ± 0.3 | – | –
[3], x2 = 0.2163 | – | – | – | 0.421 ± 0.015
[3], x2 = 0.2775 | – | 796.4 ± 0.3 | – | –
[3], x2 = 0.2818 | – | – | – | 0.455 ± 0.015
[3], x2 = 0.3429 | – | – | – | 0.479 ± 0.016
[3], x2 = 0.3488 | – | 796.9 ± 0.3 | – | –
[3], x2 = 0.4244 | – | – | – | 0.553 ± 0.017
[3], x2 = 0.442 | – | 797.6 ± 0.3 | – | –
[3], x2 = 0.4933 | – | 798 ± 0.3 | – | –
[3], x2 = 0.4988 | – | – | – | 0.615 ± 0.018
[3], x2 = 0.5008 | – | 798.1 ± 0.3 | – | –
[3], x2 = 0.5577 | – | 798.5 ± 0.3 | – | –
[3], x2 = 0.5755 | – | – | – | 0.704 ± 0.019
[3], x2 = 0.6404 | – | 799.2 ± 0.3 | – | –
[3], x2 = 0.6474 | – | 799.3 ± 0.3 | – | 0.813 ± 0.021
[3], x2 = 0.7105 | – | – | – | 0.925 ± 0.023
[3], x2 = 0.7257 | – | 799.9 ± 0.3 | – | –
[3], x2 = 0.7799 | – | – | – | 1.091 ± 0.027
[3], x2 = 0.7944 | – | 800.5 ± 0.3 | – | –
[3], x2 = 0.8562 | – | 801 ± 0.3 | – | –
[3], x2 = 0.8596 | – | – | – | 1.342 ± 0.032
[3], x2 = 0.9263 | – | – | – | 1.645 ± 0.039
[3], x2 = 0.9307 | – | 801.6 ± 0.3 | – | –
[4], x2 = 0 | – | – | 1.37383 ± 0.00031 | –
[4], x2 = 0.0765 | – | – | 1.37557 ± 0.00031 | –
[4], x2 = 0.1392 | – | – | 1.37702 ± 0.00031 | –
[4], x2 = 0.2097 | – | – | 1.37867 ± 0.00031 | –
[4], x2 = 0.2775 | – | – | 1.3802 ± 0.00031 | –
[4], x2 = 0.3488 | – | – | 1.3819 ± 0.00031 | –
[4], x2 = 0.442 | – | – | 1.38402 ± 0.00031 | –
[4], x2 = 0.4933 | – | – | 1.38514 ± 0.00031 | –
[4], x2 = 0.5008 | – | – | 1.38533 ± 0.00031 | –
[4], x2 = 0.5577 | – | – | 1.3866 ± 0.00031 | –
[4], x2 = 0.6404 | – | – | 1.38835 ± 0.00031 | –
[4], x2 = 0.6474 | – | – | 1.38848 ± 0.00031 | –
[4], x2 = 0.7257 | – | – | 1.39011 ± 0.00031 | –
[4], x2 = 0.7944 | – | – | 1.39145 ± 0.00031 | –
[4], x2 = 0.8562 | – | – | 1.3926 ± 0.00031 | –
[4], x2 = 0.9307 | – | – | 1.39387 ± 0.00031 | –
[5], x2 = 0 | 0 ± 0.00191 | – | – | –
[5], x2 = 0.134 | 0.154 ± 0.0158 | – | – | –
[5], x2 = 0.193 | 0.22 ± 0.0201 | – | – | –
[5], x2 = 0.289 | 0.281 ± 0.0239 | – | – | –
[5], x2 = 0.35 | 0.324 ± 0.0287 | – | – | –
[5], x2 = 0.425 | 0.352 ± 0.0311 | – | – | –
[5], x2 = 0.514 | 0.351 ± 0.0287 | – | – | –
[5], x2 = 0.619 | 0.337 ± 0.0287 | – | – | –
[5], x2 = 0.7 | 0.293 ± 0.0263 | – | – | –
[5], x2 = 0.769 | 0.268 ± 0.0239 | – | – | –
[5], x2 = 0.82 | 0.203 ± 0.0189 | – | – | –
[5], x2 = 0.911 | 0.141 ± 0.0148 | – | – | –
